Measured values published in patent US7741435B2, “Substance P-saporin (SP-SAP) conjugates and methods of use thereof” (Advanced Targeting Systems, Inc., priority 1997, dated 2010).

Columns and labels:
[1] = test system: NK-1R-expressing spinal cord neurons; assay: Internalization and cytotoxicity in primary cultures of spinal cord neurons; format: cell-based, rat; details: for morphological or cytotoxic changes in NK-1R-expressing and non-NK-1R, MAP-2 neurons: treatment alone
Experimental: SP-SAP internalization and cytotoxicity was examined in primary cultures of neonatal rat spinal cord neurons where approximately 15% of the neurons express NK-1R. All procedures were approved by Animal Care Committee at the VA Medical Center and the University of Minnesota. Neurons were cultured from the spinal cords of 18-day embryonic Holtzman rats (Harlan Sprague Dawley, Madison, Wis.). The whole spinal cord was dissected out of the rat and placed in 4° C. Puck's saline supplemented with 40 mM. glucose, 50 mM sucrose, and 10 mM Hepes (DISG media, pH 7.4). The spinal cords were then dissociated by trituration (15-20 times) through a small bore serological pipet. The resulting cell suspension was centrifuged at 4° C. for 5 min at 1500 rpm in a Sorvall RC-3B centrifuge (DuPont, Newtown, Conn.). The supernatant was removed and the pellet resuspended in Dulbecco's modified Eagle's medium (DMEM; Sigma Chemical Co., St. Louis, Mo.) plus 5% equine serum and 5% calf serum (v/v) (Hyclone, Logan, Utah). The cell suspension was plated on poly-L-ornithine coated 2-well chamber slides at a density of 100,000 cells/ml, and incubated at 37° C. with 9% CO2. After 4 days the mitotic inhibitors, 5-fluoro-2′-deoxyuridine and uridine were added. At 7 days the media was replaced with DMEM plus 10% equine serum (v/v). The cells were incubated unil 14 days post-culture with media changes every 4th day.
At day 14 post-culture, either saline or SP, SP-SAP conjugate or saporin (SAP) were added to a final concentration of 10^−7 M. The cells were incubated for 12 hr with the SP-SAP or SAP compounds at which time the compounds were removed from the culture and fresh media was added. The cultures were then allowed to continue until the desired timepoints (2 hr. 1, 4, 7, and 10 days) at which time the experiment was terminated and the cells were processed for immunohistochemistry by fixing for 20 min at 22° C. with 4% formalin in a phosphate buffered saline solution as previously described (2,39-42). […] Two hours following treatment with 10^−7 M SP-SAP, but not 10^−7 M SAP, NK-1R internalization was visualized using an antibody that recognized NK-1R (FIG. 8A) and intracellular accumulation of SAP was visualized using an antibody that recognized SAP (FIG. 8B)
In contrast, one day following treatment with SP alone the majority of NK-1R had recycled to the plasma membrane. Thus, within 24 hours after SP-SAP internalization these neurons could no longer efficiently recycle NK-1R back to the plasma membrane.

[2] = test system: NK-1R-expressing lamina I spinal cord neurons; assay: Cytotoxicity of intrathecal infusion in the spinal cord (immunohistochemistry, confocal microscopy); details: for change in NK-1R immunoreactivity in lamina I, spinal segments L2-L5: intrathecal injection alone, any time point examined; for change in cell number, morphology or fluorescence level of any of the cell markers examined: treatment alone, 28 days
Experimental: Animals were anesthetized with an intramuscular injection of Ketamine (100 mg/kg) & Acepromazine (1 mg/kg) and placed in a stereotaxic frame. An 8.5-cm length of PE-10 tubing (inner diameter: 0.28 mm, outer diameter: 0.61 mm), serving as an inflow cannula, was inserted into the subarachnoid space via an incision in the atlanto-occipital membrane. The cannula terminated in the caudal region of the lumbar enlargement (approximately L4). […] 5 min after spinal superfusion, the cannula was carefully withdrawn and the wound closed with 3-0 silk sutures.
Immunohistochemistry and fluorescent confocal microscopy was performed as previously described (46) using an MRC-1024 Confocal Imaging System (Bio-Rad, Boston, Mass.) and an Olympus BH-2 microscope equipped for epifluorescence (Lake Success, N.Y.). For cell counts the spinal cords were cut in the sagittal plane whereas for immunofluorescence measurements the spinal cords were cut in either the sagittal or coronal plane. Both of the microscopes were set up as previously described (46,47). SPR was detected by a polyclonal rabbit anti-SPR antibody (1:5000; a kind gift from S. Vigna) raised against a 15 amino acid peptide sequence (SPR393-407) at the COOH-terminus of the rat SPR. […] Calbindin was detected by a monoclonal mouse anti-calbindin antibody (Sigma, 1:300). Microtubule-associated protein (MAP-2) was detected by a monoclonal mouse anti MAP-2 antibody (Sigma, 1:750). Choline acetyl transferase (CHAT) was detected by a monoclonal mouse anti-ChAT antibody (Chemicon, 1:500). Glial Fibrillary Acidic Protein was detected by a polyclonal rabbit anti-GFAP antibody (DAKO, 1:450). OX-42 was detected using a monoclonal mouse antibody (Chemicon, 1:2,000). Saporin was detected by a polyclonal goat anti-Saporin antibody (Advanced Targeting Systems, 1:350). […] All primary (overnight, 22° C.) and secondary (3 hours, 22° C.) antibodies were applied in cocktails with 1% goat serum and 0.3% Triton X-100 in PBS solution. Finally, the tissue sections were washed for 20 min in PBS (pH 7.4, 22_C), mounted onto gelatin-coated slides, and coverslipped using PBS-glycerine containing 1.0% p-phenylenediamine to reduce photobleaching.
To determine the number of immunofluorescent cell bodies (Table 1) the slides were viewed through a 1.0 cm^2 eyepiece grid, which was divided into one hundred 1 mm×1 mm units, and the total number of immunofluorescent cell bodies/unit area were counted. To calculate SPR immunofluorescence intensity, images of the 60 μm thick tissue sections were obtained with the BioRad MRC1024 laser scanning confocal fluorescent imaging system and analyzed using NIH Image 1.7.
Cell numbers and immunofluorescence levels were determined using confocal microscopy. […] All data points represent an n=6 and are expressed as +/−s.e.m. and significant differences calculated by a one-way ANOVA and Bonferroni comparisons (* denotes P<0.01).

[3] = test system: capsaicin-induced hyperalgesia in rats; assay: Capsaicin-induced nocifensive behavior and mechanical and heat hyperalgesia after intrathecal pretreatment; format: in vivo, rat; details: compared to normal untreated animals, any time point
Description: Measures of nocifensive behavior and hyperalgesia produced by intraplantar injection of capsaicin were obtained as described previously (48). Hyperalgesia is defined as an increase in withdrawal responses. The capsaicin model of hyperalgesia used in these experiments was chosen as it has been well characterized, it clearly produces hyperalgesia in humans and it is the only model of hyperalgesia that can be used in parallel animal and human studies. Capsaicin (Sigma Chemical Co., St. Louis, Mo.) was dissolved in a vehicle of 7.5% polyxyethylene sorbitan monooleate (Tween-80) and saline, and given into the plantar surface of one hindpaw. Each animal received one injection of […]. The duration of nocifensive behavior, defined as lifting and guarding the injected paw, was measured for the first five minutes after injection.
Withdrawal responses to heat were determined using a procedure previously described (49). […] The start of each trial activated a timer and withdrawal latencies to the nearest 0.1 sec were measured automatically by a photocell which terminated each trial and stopped the timer upon withdrawal of the paw. […]
To measure withdrawal responses to mechanical stimuli, rats were placed under a clear plastic cage on an elevated plastic mesh floor (1 cm^2 perforations). […] The frequency was determined for each hindpaw. […]

[4] = General observation after intrathecal infusion (body weight, food intake, behavior); format: in vivo, rat; details: for 28 days after intrathecal injection
NK-1R = molecular target: T1, NK-1R (Rattus norvegicus, UniProt P14600); assay: Inhibition of radiolabeled SP binding to spinal cord membrane homogenates; details: iodinated SP 150 pM, 100 nM nonlabeled competitor, FIG. 4
T1 construct: from tissue; host or cells: membrane homogenate (spinal cord according to the assay title)
T1 sequence (P14600 whole entry): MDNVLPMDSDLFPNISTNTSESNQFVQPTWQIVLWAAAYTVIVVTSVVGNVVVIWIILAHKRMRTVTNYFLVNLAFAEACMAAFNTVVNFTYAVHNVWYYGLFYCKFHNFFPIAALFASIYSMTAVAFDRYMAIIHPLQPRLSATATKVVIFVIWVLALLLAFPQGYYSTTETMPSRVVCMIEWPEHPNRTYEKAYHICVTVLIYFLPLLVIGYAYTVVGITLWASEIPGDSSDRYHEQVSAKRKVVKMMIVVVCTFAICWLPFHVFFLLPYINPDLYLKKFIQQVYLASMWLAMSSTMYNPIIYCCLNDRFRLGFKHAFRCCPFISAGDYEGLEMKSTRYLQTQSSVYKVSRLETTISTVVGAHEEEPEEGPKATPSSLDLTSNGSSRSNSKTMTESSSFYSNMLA
Experimental: Homogenate is prepared and binding performed as previously described (26). […] Membrane-bound label is separated from free label by centrifugation and measured with a gamma counter. Control is no addition of competitor.

[5] = L4 segment, 28 days post-treatment, intrathecal, n=6, ± s.e.m.

Molecule | change in NK-1R immunoreactivity in lamina I, spinal segments L2-L5 [2] | change in cell number, morphology or fluorescence level of any of the cell markers examined [2] | change in mechanical or thermal hyperalgesia, or nocifensive behavior produced by capsaicin [3] | morphological or cytotoxic changes in NK-1R-expressing and non-NK-1R, MAP-2 neurons ([1]; 10^−7 M) | changes in body weight, food intake, alertness, locomotion or grooming behavior [4] | inhibition of iodinated SP binding (NK-1R) | other results
COc1ccccc1CC(=N)N1C[C@@H]2C(=O)CCC(c3ccccc3)(c3ccccc3)[C@@H]2C1 [RP67580] | – | – | – | – | – | – | block of SP- and SP-SAP-induced NK-1R internalization ([1]; 5×10^−6 M antagonist): blocked
RPKPQQFFGLM [SP] | no change | did not produce a significant change | no significant change | no significant morphological or cytotoxic changes | no detectable changes | – | NK-1R internalization ([1]; 10^−7 M, cultured spinal cord neurons): induced a rapid and similar degree of NK-1R internalization
SAP: potent ribosome-inactivating protein isolated from the seeds of the plant Saponaria officinalis | no change | did not produce a significant change | no significant change | no significant morphological or cytotoxic changes | no detectable changes | little or no inhibition | Percent immunoreactive positive cells (saline = 100), SP (DRG) ([2]; L4 dorsal root ganglia, 28 days post-treatment, intrathecal, n=6, ± s.e.m.): 91 ± 11%; Percent immunofluorescence level, GFAP (lamina I) [2, 5]: 90 ± 13%; Percent immunofluorescence level, MAP-2 (lamina I) [2, 5]: 100 ± 14%; Percent immunofluorescence level, SP (laminae I and II) [2, 5]: 96 ± 3%; Percent immunofluorescence level, SPR (laminae I and II) [2, 5]: 95 ± 3%; Percent immunoreactive positive cells (saline = 100), Calbindin (laminae I and II) [2, 5]: 96 ± 7%; Percent immunoreactive positive cells (saline = 100), ChAT (motor neurons) [2, 5]: 116 ± 24%; Percent immunoreactive positive cells (saline = 100), SPR (lamina III and IV) [2, 5]: 79 ± 13%; Percent immunoreactive positive cells (saline = 100), SPR (laminae I and II) [2, 5]: 80 ± 16%; Percent immunofluorescence level, SPR (preganglionic sympathetic) ([2]; spinal segment T10, 28 days post-treatment, intrathecal, n=6, ± s.e.m.): 100 ± 9%
neurokinin A | – | – | – | – | – | significant interaction with the NK-1R | –
neurokinin B | – | – | – | – | – | little or no inhibition | –
